The test system of data set [1] is EV-D68 US/KY/14-18953 virus. The data set can be described thus: CPE assay, EV-D68 US/KY/14-18953 in RD cells. The format is cell-based, Enterovirus D68 (EV-D68).
The subject of the next data set is HeLa. The data set is described as follows: Cytotoxicity in HeLa cells.
A further data set relates to A549. The data set is described as follows: Cytotoxicity in A549 cells.
Data set [2] deals with influenza A virus A/California/07/2009 (H1N1). The data set can be described thus: Plaque assay, influenza A virus. Particulars: 10 μM. The format is cell-based. As to the method: (§1) Plaque assay was performed using the condition described previously (see, Wang, Y.; et al., J. Med. Chem. 2018, 61, 1074-1085). […] Oseltamivir carboxylate was included as a positive control and was tested at 200 nM.

The test system of data set [3] is EV-D68 viral capsid protein VP1. The data set can be described thus: VP1 expression by immunofluorescence imaging and western blot. In kind it is cell-based, Enterovirus D68 (EV-D68). Particulars: for VP1 protein expression: 1 μM, US/KY/14-18953 MOI=1, 9 hpi, immunofluorescence imaging and western blot. As to the method:
The EV-D68 2C protein is a highly conserved viral protein that plays multiple functions in genome replication. It has been implicated in RNA replication, membrane rearrangements, encapsidation, and uncoating (see, Van der Linden, L.; et al., Viruses 2015, 7, 4529-4562). Inhibition of viral 2C protein is expected to inhibit viral RNA and protein synthesis.
Total proteins were extracted at 9 hpi using RAPI lysis buffer [50 mM Tris (pH 8.0), 1% NP-40, 0.1% SDS, 150 mM NaCl, 0.5% Sodium deoxycholate, 5 mM EDTA, 10 mM NaF, 10 mM NaPPi, […] 1 mM PMSF]. Equal amount of extracted total proteins were separated by electrophoresis and transferred to a polyvinylidene difluoride (PVDF) membrane. Viral protein VP1 or host GAPDH was recognized by rabbit anti-VP1 (GeneTex: GTX132313; 1:3,000 dilution) or mouse anti-GAPDH antibody (EMD Millipore: MAB374; 1:3,000 dilution), respectively, followed by detection using Horse radish peroxidase (HRP)-conjugated secondary antibody (ThermoFisher Scientific: 32430 or 656120; 1:3,000 dilutions) and Supersignal West Femto substrate (ThermoFisher Scientific).
At 9 hpi, infected cells were fixed with 4% formaldehyde for 10 min followed by permeabilization with 0.2% Triton X-100 for another 10 min. After blocking with 10% bovine serum, cells were stained with rabbit anti-VP1 antibody (GeneTex: GTX132313) and followed by staining with anti-rabbit secondary antibody conjugated to Alexa-488 (ThermoFisher Scientific). Nucleus were stained with 300 nM DAPI (ThermoFisher Scientific) after secondary antibodies incubation. Fluorescent images were acquired using a Leica SP5-II spectral Confocal Microscope (Leica).
For orientation: In western blotting, separated proteins are transferred to a membrane and probed.

Data set [4] has as its system influenza B virus B/Brisbane/60/2008 (Victoria). The data set can be described thus: Plaque assay, influenza B virus. In kind it is cell-based. Conditions: 10 μM. As to the method: as §1
The subject of another data set is sodium channels. The data set is described as follows: Sodium flux assay in DRG neurons. Conditions: rat DRG neurons, veratridine.
The next data set has as its system SH-SY5Y cells. The data set can be described thus: Cytotoxicity in SH-SY5Y cells.
For another data set, the system named is A172 cells. The data set can be described thus: Cytotoxicity in A172 cells.
For a further data set, the system named is CVB3. The data set is described as follows: CPE assay, CVB3 in Vero C1008 cells. In kind it is cell-based, coxsackievirus B3 (CVB3). Particulars: Enterovirus B.
Data set [5] in a line: Cytotoxicity in Vero C1008 cells. Conditions: African green monkey.
The next data set has as its system EV-A71 Tainan/4643/98. The data set is described as follows: CPE assay, EV-A71 Tainan in RD cells. In kind it is cell-based. Particulars: Enterovirus A.
The test system of another data set is RD cells. Conditions: human, 3 days.
The target of another data set is T1, CVB3 2C protein (Coxsackievirus B3, UniProt P03313).
T1 construct: CVB3 Nancy 2C (amino acids 37 to 329) protein; His tag with TEV site (inferred from the pET28a(+)-TEV vector and Ni-NTA purification); made in house; host or cells: E. coli Rosetta 2(DE3)
T1 sequence (P03313 1137-1429): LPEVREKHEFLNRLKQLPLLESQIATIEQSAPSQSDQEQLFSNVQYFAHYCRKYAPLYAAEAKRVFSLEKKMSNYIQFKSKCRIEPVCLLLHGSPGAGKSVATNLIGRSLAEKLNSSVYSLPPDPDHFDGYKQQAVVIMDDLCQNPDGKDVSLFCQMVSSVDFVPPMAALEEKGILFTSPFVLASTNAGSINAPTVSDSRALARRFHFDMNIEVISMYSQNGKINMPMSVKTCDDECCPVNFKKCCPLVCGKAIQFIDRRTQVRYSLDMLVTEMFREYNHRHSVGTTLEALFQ
The data set can be described thus: Thermal shift assay (differential scanning fluorimetry). The format is binding. (Differential scanning fluorimetry follows unfolding on heating by fluorescence.)

[6] abbreviates: Enterovirus D, EVD68, RD, against five different strains of EV-D68 viruses (summary), read-out: EC50.

Here are results for 17 compounds from patent US20210244721A1, “SMALL MOLECULE ENTEROVIRUS INHIBITORS AND USES THEREOF” (priority 2020, published 2021).

Read-outs that look alike come from different tables or passages of the source. Bounds are passed on as bounds.

Method for A172 cells: (§2) The cytotoxicity of each compound was determined using the neutral red cell viability assay. The assay was performed under similar conditions (incubation temperature, time, and media) as the CPE, but excluded viral infection. Data acquisition and analysis (CC50) was performed similarly to the antiviral CPE assay, and all values are from triplicate experiments.
Method for A549: as §2
Method for HeLa: as §2
Method for SH-SY5Y cells: as §2
Method for sodium channels: In this assay, rat dorsal root ganglia (DRG) neurons were incubated with various concentrations of testing compounds. Sodium channels were then activated by the sodium channel agonist veratridine. The resulting sodium flux was measured indirectly by quantifying the sodium channel triggered calcium flux, which was measured by a calcium-specific fluorescence dye (FIG. 4).
Dorsal root ganglion neurons were prepared as previously described^27 and were loaded for 30 minutes at 3TC with 3 μM Fura-2AM (Cat #F1221, Thermo Fisher, stock solution prepared at 1 mM in DMSO, 0.02% pluronic acid, Cat #P-3000MP, Life technologies) to follow changes in intracellular calcium ([Ca^2+]c) in a standard bath solution containing 139 mM NaCl, 3 mM KCl, 0.8 mM MgCl2, 1.8 mM CaCl2, 10 mM Na HEPES, pH 7.4, 5 mM glucose exactly as previously described^28 Fluorescence imaging was performed with an inverted microscope, NikonEclipseTi-U (Nikon Instruments Inc., Melville, N.Y.), using objective Nikon Fluor 4X and a Photometrics cooled CCD camera Cool SNAP ES^2 (Roper Scientific, Tucson, Ariz.) controlled by Nis Elements software (version 4.20, Nikon Instruments). […] Fluorescence was recorded through a 505-nm dichroic mirror at 535±25 nm. […] The changes in [Ca^2+]c were monitored by following a ratio of F340/F380, calculated after subtracting the background from both channels. […]

What is called EC50 is the midpoint of the concentration-response curve. The term CC50 denotes the concentration at which the toxic effect on the cells reaches its halfway point. Regarding `CN(C)CCNC(=O)c1cc(-c2ccccc2)nc2ccccc12` [drawing 128], the EC50 in data set [1] (EV-D68 US/KY/14-18953, RD cells, CPE assay, read-out: EC50) came out at 0.4 µM. In addition, the CC50 with HeLa was 68.7 µM; with A549 it was 121 µM.

Regarding `CN(C)CCNC(=O)c1cc(-c2cccs2)nc2ccccc12` [Compound 12a, N-[2-(dimethylamino)ethyl]-2-(thiophen-2-yl)quinoline-4-carboxamide], the EC50 in data set [1] (EV-D68 US/KY/14-18953, RD cells, CPE assay, listed as 6bf) is 0.04 µM; in [1] (Enterovirus D, EVD68, RD, against five different strains of EV-D68 viruses (summary)) it was under 1 µM. In addition, the “inhibition in plaque assay” value in data set [2] and in data set [4] was “no inhibition” each time. In addition, the VP1 protein expression entry in data set [3] (RD cells) is recorded as “completely blocked”.

Take `CCCCOc1cc(C(=O)NCCN(CC)CC)c2ccccc2n1` [dibucaine, reference compound]: the “inhibition in plaque assay” value in [2] and in [4] was “no inhibition” each time. Besides, the VP1 protein expression entry in data set [3] (RD cells) was “no effect”. For the same compound, in data set [3] (3 μM, 9 hpi, compared to DMSO control), the “fluorescent signal of VP1 (immunofluorescence)” value is reported as “significantly reduced”. In addition, the “VP1 expression (western blot)” value in [3] (3 μM, RD cells, 9 hpi) was “nearly completely inhibited”. The “inhibition of sodium current conductance” value with sodium channels (20 μM and 50 μM) is on record as “potently inhibited”.

Regarding `O=C(NCCN1CCCC1)c1cc(-c2cccs2)nc2ccccc12` [drawing 134], the CC50 is 93.3 µM in the data set with SH-SY5Y cells and 65.4 µM in the data set on A172 cells.

Take `CCCCOc1cc(C(=O)NCCN(CC)CC)c2ccccc2n1` [drawing 127]: the CC50 in the data set with HeLa amounted to 36 µM; in the data set on A549, 37.5 µM.

As to `CCCCOc1cc(C(=O)NCCN(CC)CC)c2ccccc2n1` [drawing 195], the EC50 in the data set on CVB3 (CVB3, Vero C1008 cells, read-out: EC50) is 1.3 µM; with EV-A71 Tainan/4643/98 (EVA71, EV-A71 Tainan, RD cells, read-out: EC50), over 10 µM. Further, the CC50 at 3 days in data set [5] (Vero C1008 cells) came out at 64.4 µM.

`Cc1ccc2c(c1)c1c3n2CCNC3CCC1` (centres unmarked) [drawing 10]: the CC50 in the data set on RD cells turned out to be 19 ± 1.6 µM.

`CN(C)CCNC(=O)c1cc(-c2cccs2)nc2ccccc12` [drawing 133]: the CC50 in the data set on SH-SY5Y cells is 136 µM; with A172 cells it was 73.8 µM.

For `CNCCC(Oc1ccc(C(F)(F)F)cc1)c1ccccc1` (centres unmarked), in [5], the CC50 at 3 days came out at 11 µM.

In the case of `CN(C)CCNC(=O)c1cc(-c2ccccc2)nc2ccccc12` [Compound 10a, N-[2-(dimethylamino)ethyl]-2-phenylquinoline-4-carboxamide], the 50% effective concentration (EC50) is 0.4 ± 0.2 µM in data set [1] (Enterovirus D, EVD68, RD, Table 6, EV-D68 US/KY/14-18953, RD cells) and under 1 µM in [1] (setting [6]). The “inhibition in plaque assay” value in [2] and in [4] was “no inhibition” throughout. In [3] (RD cells), the VP1 protein expression entry is reported as “completely blocked”. The “inhibition of sodium current conductance” value in the data set on sodium channels (2 μM to 50 μM) was “minimal to no effect”.

For the compound `CNCCNC(=O)c1cc(-c2ccc(F)cc2)nc2ccccc12` [Compound 6aw, 2-(4 fluorophenyl)-N-[2-(methylamino)ethyl]quinoline-4-carboxamide], the “thermal stability of CVB3 2C” value on CVB3 2C protein (three concentrations (10, 30 or 100 μM)) is on record as “increased the thermal stability of CVB3 2C in a concentration dependent manner”.

As to `N=C(N)N` [guanidine, reference compound], the Tm shift on CVB3 2C protein (1 mM, CVB3 2C 4.5 μM) was 1.77 °C.

Regarding `CN(C)CCNC(=O)c1cc(-c2ccccc2)nc2ccccc12` [drawing 132], the values for the CC50 with SH-SY5Y cells and in the data set with A172 cells were over 300 µM and 88.4 µM, respectively.

As to `CN(C)CCNC(=O)c1cc(-c2cccs2)nc2ccccc12` [drawing 129], in data set [1] (EV-D68 US/KY/14-18953, RD cells, CPE assay), the EC50 was determined as 0.04 µM. Further, the CC50 came out at 51.2 µM in the data set on HeLa and 98.8 µM in the data set on A549.

As for `O=C(NCCN1CCCC1)c1cc(-c2cccs2)nc2ccccc12` [Compound 12c, N-[2-(pyrrolidin-1-yl)ethyl]-2-(thiophen-2-yl)quinoline-4-carboxamide], the EC50 in data set [1] (setting [6]) is under 1 µM. In addition, the “inhibition in plaque assay” value in [2] and in data set [4] was “no inhibition” throughout. Besides, the VP1 protein expression entry in data set [3] (RD cells) is given as “completely blocked”.

In the case of `CCCCOc1cc(C(=O)NCCN(CC)CC)c2ccccc2n1` [drawing 131], the CC50 in the data set with SH-SY5Y cells and in the data set on A172 cells was over 30 µM each time.

In the case of `COc1ccc(CC(C)NCC(O)c2ccc(O)c(NC=O)c2)cc1` (centres unmarked), the EC50 in the data set with CVB3 (CVB3, Vero C1008) is 9.9 µM; in the data set on EV-A71 Tainan/4643/98 (EVA71, RD), over 100 µM. In addition, the CC50 at 3 days in [5] is over 300 µM.
